According to patent publication US20230181535A1, “UBIQUITIN-LIGASE INHIBITORS FOR THE TREATMENT OF CANCER” (FUNDACIÓN PROFESOR NOVOA SANTOS, priority 2020, published 2023):

Assays:
[1] = system: LoVo cells; assay: Invasion assay, LoVo; assay type: cell-based; conditions: treated 48 h
Description: For invasion assays, cells were treated with Hakin-1 or DMSO as vehicle for 48 h using 1% FBS during the last 24 hours. 3×10^5 MDCK, MDCK-Hakai or LoVo cells were seeded in a cell invasion chamber (Cell invasion assay kit, Chemicon International) containing medium with 2% FBS. After 72 hours for MDCK and MDCK-Hakai Invasive and 16 h for LoVo cells, invasive cells invaded that reach the lower chamber containing 30% FBS were fixed and stained with crystal violet (Sigma Aldrich, St Louis, Mo.) following the manufacturer's specifications. For migration assays, HT29 cells were cultured with Hakin-1 or DMSO as vehicle for 48 h, using medium without serum the last 24 h. In the cell migration chamber were seeded 3×10^5 HT29 cells (Cell migration kit, Millipore, Bedford, Mass.) containing medium without serum. After 16 h, migrated cells in the lower chamber containing serum with 30% FBS were stained with crystal violet and counted following the manufacturer's specifications. For both invasion and migration assays cells were counted in five fields photographed with an Olympus microscope using a 20× objective, experiments were performed in triplicates for each condition and the assays were repeated at least three times. Results are expressed as mean±SD.

[2] = system: epithelial MDCK cells; assay: Phase-contrast cell phenotype, MDCK; assay type: cell-based
Description: (§1) MDCK, HEK293T, HepG2, MCF7 and ACHN cells were cultured in Dulbecco's Modified Eagles Medium (DMEM). MDCK stably expressing Hakai cells (Hakai-MDCK) were previously reported and were growth in DMEM with G418 (800 μg/ml). […] LoVo and PC-3 cells were cultured in F-12K Medium (Kaighn's Modification of Ham's F-12 Medium) and HT-29 and HCT116 cells in McCoy's 5a Medium Modified. 5637 cells were cultured in RPMI medium. All culture media were supplemented with 1% penicillin/streptomycin and 10% of heat-inactivated fetal bovine serum (FBS) at 37° C. in a humidified incubator with 5% CO2. Cells were monthly tested for mycoplasma contamination and used only for 1-3 months after defrosted. LoVo and HT29 cells were authenticated with the StemElite ID system (Promega). For phase-contrast images, culture cells were photographed with a Nikon Eclipse-TI microscope.

[3] = system: Hakai-MDCK cells; assay: Soft agar-colony formation assay, Hakai-MDCK; assay type: cell-based; conditions: 21 days
Description: Soft agar-colony formation assay was performed on 12-well plates in triplicates at a density of 5×10^3 MDCK and MDCK-Hakai cells/well, or 12×10^3 HT29 cells/well. Cells were seeded in medium with 0.5% low-melting agarose over a layer with 0.75% low-melting agarose (Lonza Rockland, Me., USA). Cells were treated with the indicated inhibitors and DMSO was used as vehicle. Treatment was refreshed every 3 days and, after 21 days for MDCK and MDCK-Hakai cells or 28 days for HT29 cells, number of colonies were quantified. Quantification of five randomly-selected fields of each condition was photographed with a Nikon Eclipse-TI microscope (objective 4×). Experiments were conducted with three triplicates and were repeated three times. Data are represented as mean±SD.

[4] = Hepatocyte stability, human; assay type: in vitro ADME; conditions: cryopreserved human hepatocytes in suspension, read-out: estimated half-life
Description: Test compound (final substrate concentration 3 μM; final DMSO concentration 0.25%) were pre-incubated at 37° C., prior to the addition of a suspension of cryopreserved hepatocytes (final cell density 0.5×10^6 viable cells/mL in Williams E media supplemented with 2 mM L glutamine and 25 mM HEPES) to initiate the reaction. The reactions were stopped with acetonitrile containing internal standard at the appropriate time points ([…]). The termination plates were centrifuged at 2500 rpm at 4° C. for 30 minute to precipitate the protein. Following the hepatocyte stability assays, the samples were utilized for metabolite profiling. Hepatocyte stability in mouse and human was performed by using the incubation of tested compound (3 μM) with cryopreserved hepatocytes in suspension. Samples were removed at 6 time points over the course of a 60 min experiment and remaining test compound at each time point was analysed by using LC-MS/MS. Then, data was analysed and an intrinsic clearance (CLint) with standard error and half-life (t½) reported.

[5] = system: HT-29 cells; assay: Phase-contrast cell phenotype, HT-29; assay type: cell-based, human
Description: as §1

[6] = system: mesenchymal Hakai-MDCK cells; assay: E-cadherin protein levels in Hakai-MDCK cells; assay type: cell-based; conditions: Hakai-MDCK cells (no basal E-cadherin)
Description: For western blot analysis, cells were treated with the indicated inhibitors for 48 h and the whole cell extracts were obtained as described previously. Twenty micrograms of lysates were resolved on a 10% polyacrilamide SDS-PAGE followed by western blot analysis performed as previously described. For immunofluorescence assays cells were grown for 24 h on glass coverslips and treated with the indicated inhibitors for 48 h. Cells were fixed with 4% PFA for 15 min, permeabilized with 0.5% […] and incubated with E-cadherin antibody for 2 h. Coverslips were incubated with fluorescein-tagged secondary antibody (Dakopatts, Sweden) for […]. Finally coverslips were mounted with ProLong Gold antifade reagent (LifeTech, UK) and images were taken in epifluorescence microscope (Olympus) using 40× objective. […] One set of SIM Synthetic Focus images were taken in the DAPI channel for Hoechst 33342 staining, and another set of images were taken in the FITC channel for anti-E-cadherin-AlexaFluor488 labeling and analysed by Structured Illumination Microscopy (SIM™) platform to image the cells and Vala's CyteSeer® Cell-Cell Junction Algorithm to quantify the degree of expression and intracellular location of E-cadherin Vala's CyteSeer® Software can also measure relative DNA content by analyzing Total Integrated Intensity (TII) of the Nuclear Image (Ni) on the Nuclear Mask (Nm). […]

[7] = system: non-cancerous HEK293T cells; assay: MTT cell viability assay, HEK293T; assay type: cell-based, human; conditions: concentrations tested in the previous assays
Description: For cytotoxicity assays, 1×10^4 cells were seeded per well into a 96-well plate. After 24 h cells were treated with the indicated inhibitors for 72 h and a MTT colorimetric cell viability assay was performed following manufacturer's instructions (Sigma Aldrich, St Louis, Mo.). Absorbance was measured at 570 and 630 nm using a Multiskan Plus Reader (Nanoquant Infinite M200 Tecan Trading AG, Switzerland). Dose-response curves were designed with Graph Pad Prism Software and the half-maximal inhibitory concentration (IC50) values were calculated. Represented data are the mean±SEM of at least three independent experiments with six replicates per condition.

Compound: O=C(O)c1ccc(-n2nnnc2SCC(=O)c2ccc([N+](=O)[O-])cc2)cc1 [Hakin-1, 4-(5-[2-(4-nitrophenyl)-2-oxoethyl]thiol-1H-tetrazol-1-yl)benzoic acid]
- cell invasion [1]: strongly reduced cell invasion
- cell phenotype by phase contrast [2]: no effect was observed
- colony formation in soft agar [3]: robust inhibition of colony formation
- half-life at 3 μM [4]: 2.33 h
- cell phenotype by phase contrast [5]: modestly induce an epithelial phenotype
- E-cadherin protein levels [6]: no recovery was detected

Compound: O=C(O)c1ccc(-n2nnnc2SCC(O)c2ccc([N+](=O)[O-])cc2)cc1 (stereo not shown) [MKH1]
- cytotoxic effect (cell viability, MTT) [7]: no cytotoxic effect
